# Columns and labels:
# Cynomolgus IPSCs = experiment: Hepatocyte differentiation of cynomolgus IPSCs (supplement optimisation)
# Protocol: To initialize differentiation, the cells are incubated in a defined medium comprising a Wnt pathway activator.
# Generally, media change was performed every day until day 16 and afterwards every second day. Basic medium for differentiation was MT basic medium (DMEM/F12+Glutamax with insulin 7 μg/ml, monothioglycerole 450 μM, 1× Lipid concentrate, BSA 5 mg/ml, sodium selenite 14 ng/ml, 1× non-essential amino acids, heparin 2 mg/ml, transferrin 15 μg/ml, 220 μM ascorbic acid-2-phosphate) or changing to RPMI1640 medium+B27 1:50+non-essential amino acids 1:100 from day 3 of differentiation onwards. On day 1 of differentiation, medium was changed to MT basic medium with 100 ng/ml ActivinA, 10 μM Ly294002 and 1 μM CP21 (Roche GSK3β inhibitor). Then, cells were treated for two days with 100 ng/ml ActivinA, 0.25 μM LDN193189 and 1 μM CP21. At day 4, the medium was changed for three days to the supplements 50 ng/ml ActivinA, 2% knock-out serum replacement (KSR) and 0.5% DMSO. The protocol was modified to a prolonged step of high ActivinA which consisted of 100 ng/ml ActivinA at day 4 of differentiation. To induce hepatic specification, cells were maintained for four days in medium supplemented with 2% KSR, 10 ng/ml BMP4, 10 ng/ml FGF2 or FGF10 and 0.5% DMSO. […] Modification included the addition of 1 μM DAPT between day 11 and day 20. Further modifications included the change of the basis medium for maturation at day 11 to HBM medium+SingleQuots™ (Lonza).
# At day 21 of differentiation, efficiency of differentiation was analyzed using two different quantification methods. First, the area covered by ALB positive cells was determined and second the area of cells with typical hepatocyte morphology was evaluated (FIG. 6A and FIG. 6B).
# [1] = tested on: NHP-IPSC-derived hepatocytes; experiment: Hepatotoxicity assay (WST-1 cell viability); assay type: cell-based, Cynomolgus monkey; conditions: 100 μM, 24 hours, WST-1, MACS-enriched cells in matrigel sandwich
# Protocol: NHP-IPSC-derived hepatocytes were enriched using MACS and replated in matrigel sandwich condition as described above. To assess cell response to hepatotoxic compounds cells were treated with 100 μM troglitazone (Sigma) for 24 hours. Cell viability was measured using the WST-1 reagent (Sigma). 10 μl WST-1 reagent were added directly to the medium (1:10 dilution) and cells were incubated for 4 hours at 37° C., 5% CO2. Plates were stirred for 15 seconds and absorbance at 405 nm was measured.
# To assess the feasibility of NHP IPSC-derived hepatocytes as model system for drug-induced liver injury, we treated the hepatocytes with Troglitazone, a small molecule with known hepatotoxic effects.
molecule,measurement,setting,value
"Cn1cc(C2=C(c3cccc(N)c3)C(=O)NC2=O)c2ccccc21 [CP21, 3-(3-Amino-phenyl)-4-(1-methyl-1H-indol-3-yl)-pyrrole-2,5-dione]",efficiency of differentiation of pluripotent stem cells into hepatocytes,"Cynomolgus IPSCs; CP21 1 μM, cell density 45000/cm^2, tested 0 to 2 μM, 30000 to 75000/cm^2",most efficient differentiation
same,cell viability during differentiation,Cynomolgus IPSCs; CP21 concentrations above 2 μM,decreased cell viability
Cc1c(C)c2c(c(C)c1O)CCC(C)(COc1ccc(CC3SC(=O)NC3=O)cc1)O2 (stereo not shown) [Troglitazone],cell viability compared to control cells,[1],decrease in cell viability
FGF2: fibroblast growth factor used for hepatic specification,ALB positive cells at day 21,"Cynomolgus IPSCs; 10 ng/ml FGF2 versus FGF10, hepatic specification step",more ALB positive cells than FGF10 treatment
